How the values were obtained:
Type in all cases: in vivo
[1] = test system: Puccinia recondita; assay: Curative activity against brown rust of wheat caused by Puccinia recondita; settings: single active compound, wheat seedlings, sprayed 1 day after inoculation, read after 7 days, efficacy in % of untreated control (Abbot)
Description: The active compounds, separately or jointly, were prepared as a stock solution comprising 25 mg of active compound which was made up to 10 ml using a mixture of acetone and/or dimethyl sulfoxide and the emulsifier Uniperol® EL (wetting agent having an emulsifying and dispersing action based on ethoxylated alkylphenols) in a ratio by volume of solvent/emulsifier of 99:1. The mixture was then made up to 100 ml with water. This stock solution was diluted with the solvent/emulsifier/water mixture described to give the concentration of active compound stated below. Alternatively, the active compounds triticonazole and pyraclostrobin were used as a commercial finished formulation and diluted with water to the stated active compound concentrations. The visually determined percentages of infected leaf areas were converted into efficacies in % of the untreated control: The efficacy (E) is calculated as follows using Abbot's formula: E=(1−α/β)·100 α corresponds to the fungicidal infection of the treated plants in % and β corresponds to the fungicidal infection of the untreated (control) plants in % An efficacy of 0 means that the infection level of the treated plants corresponds to that of the untreated control plants; an efficacy of 100 means that the treated plants were not infected. The expected efficacies of active compound combinations were determined using Colby's formula (Colby, S. R. “Calculating synergistic and antagonistic responses of herbicide combinations”, Weeds, 15, pp. 20-22, 1967) and compared with the observed efficacies. E=x+y−x·y/100 Colby's formula • E expected efficacy, expressed in % of the untreated control, when using the mixture of the active compounds A and B at the concentrations a and b; • x efficacy, expressed in % of the untreated control, when using the active compound A at the concentration a; • y efficacy, expressed in % of the untreated control, when using the active compound B at the concentration b. […] The extent of the rust fungus development on the leaves was then determined.

[2] = test system: Botrytis cinerea; assay: Activity against gray mold on bell pepper leaves caused by Botrytis cinerea, 1 day protective application; settings: single active compound, assessed after 5 days
Description: The active compounds, separately or jointly, were prepared as a stock solution comprising 25 mg of active compound which was made up to 10 ml using a mixture of acetone and/or dimethyl sulfoxide and the emulsifier Uniperol® EL (wetting agent having an emulsifying and dispersing action based on ethoxylated alkylphenols) in a ratio by volume of solvent/emulsifier of 99:1. The mixture was then made up to 100 ml with water. This stock solution was diluted with the solvent/emulsifier/water mixture described to give the concentration of active compound stated below. Alternatively, the active compounds triticonazole and pyraclostrobin were used as a commercial finished formulation and diluted with water to the stated active compound concentrations. The visually determined percentages of infected leaf areas were converted into efficacies in % of the untreated control: The efficacy (E) is calculated as follows using Abbot's formula: E=(1−α/β)·100 α corresponds to the fungicidal infection of the treated plants in % and β corresponds to the fungicidal infection of the untreated (control) plants in % An efficacy of 0 means that the infection level of the treated plants corresponds to that of the untreated control plants; an efficacy of 100 means that the treated plants were not infected. The expected efficacies of active compound combinations were determined using Colby's formula (Colby, S. R. “Calculating synergistic and antagonistic responses of herbicide combinations”, Weeds, 15, pp. 20-22, 1967) and compared with the observed efficacies. E=x+y−x·y/100 Colby's formula • E expected efficacy, expressed in % of the untreated control, when using the mixture of the active compounds A and B at the concentrations a and b; • x efficacy, expressed in % of the untreated control, when using the active compound A at the concentration a; • y efficacy, expressed in % of the untreated control, when using the active compound B at the concentration b. […] After 5 days, the extent of the fungal infection on the leaves could be determined visually in %.

[3] = test system: Alternaria solani; assay: Activity against early blight of tomato caused by Alternaria solani (protective spray, potted tomato plants); settings: single active compound, 16 mg/l; tomato leaves, sprayed 1 day before infection, read after 5 days; efficacy in % of untreated control (Abbot)
Description: The active compounds, separately or jointly, were prepared as a stock solution comprising 25 mg of active compound which was made up to 10 ml using a mixture of acetone and/or dimethyl sulfoxide and the emulsifier Uniperol® EL (wetting agent having an emulsifying and dispersing action based on ethoxylated alkylphenols) in a ratio by volume of solvent/emulsifier of 99:1. The mixture was then made up to 100 ml with water. This stock solution was diluted with the solvent/emulsifier/water mixture described to give the concentration of active compound stated below. […] The visually determined percentages of infected leaf areas were converted into efficacies in % of the untreated control: The efficacy (E) is calculated as follows using Abbot's formula: E=(1−α/β)·100 α corresponds to the fungicidal infection of the treated plants in % and β corresponds to the fungicidal infection of the untreated (control) plants in % An efficacy of 0 means that the infection level of the treated plants corresponds to that of the untreated control plants; an efficacy of 100 means that the treated plants were not infected. The expected efficacies of active compound combinations were determined using Colby's formula (Colby, S. R. “Calculating synergistic and antagonistic responses of herbicide combinations”, Weeds, 15, pp. 20-22, 1967) and compared with the observed efficacies. […]

| Structure (SMILES) | Observed activity (% infection) ([1]; 63 mg/l) [%] | Observed activity (% infection) ([2]; 63 mg/l) [%] | Observed efficacy (% of untreated control, Abbott) [3] [%] | Observed activity (% infection) ([1]; 0.25 mg/l) [%] | Observed activity (% infection) ([2]; 16 mg/l) [%] |
| --- | --- | --- | --- | --- | --- |
| COc1ccc(C(=CC(=O)N2CCOCC2)c2ccc(Cl)cc2)cc1OC [Dimethomorph, 3-(4-chlorophenyl)-3-(3,4-dimethoxyphenyl)-1-morpholin-4-yl-propenone] | 0 | 0 | – | – | – |
| COc1cc(C)c(C(=O)c2c(OC)ccc(Br)c2C)c(OC)c1OC [Metrafenone, 3′-bromo-2,3,4,6′-tetramethoxy-2′,6-dimethylbenzophenone] | 0 | 0 | – | – | – |
| CC1(C)CC/C(=C\c2ccc(Cl)cc2)C1(O)Cn1cncn1 (stereo not shown) [Triticonazole, (5E)-5-[(4-chlorophenyl)methylene]-2,2-dimethyl-1-(1H-1,2,4-triazol-1-ylmethyl)cyclopentanol] | – | – | 20 | 0 | – |
| COC(=O)N(OC)c1ccccc1COc1ccn(-c2ccc(Cl)cc2)n1 [pyraclostrobin] | – | – | – | – | 11 |
